Experiments:
RXF 393 = details: RXF 393, Renal
SK-MEL-2 = details: SK-MEL-2, Melanoma
MALME-3M = details: Melanoma
CAKI-1 = details: CAKI-1, Renal
SK-MEL-28 = details: SK-MEL-28, Melanoma
U251 = details: U251, CNS
MDA-MB-468 = details: MDA-MB-468, Breast
A498 = details: A498, Renal
MCF7 = details: MCF7, Breast
KM12 = details: KM12, Colon
M14 = type: cell-based; details: M14, Melanoma
OVCAR-3 = details: OVCAR-3, Ovarian
[1] = DPPH radical scavenging assay; details: 25 µM test compound, 0.1 mM DPPH, acetonitrile, 30 min
Procedure, shortened: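 Compounds at 25 µM in acetonitrile mixed 1:2 with 0.1 mM DPPH in acetonitrile, kept 30 min in the dark at room temperature. Absorbance read at 517 nm; % scavenging = (Ac − As)/Ac × 100, Ac being DPPH blank. Ascorbic acid positive control.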

OVCAR-8 = details: OVCAR-8, Ovarian
SF-539 = details: SF-539, CNS
SW-620 = details: SW-620, Colon
HT29 = details: HT29, Colon
[2] = read-out: 50% lethal concentration (LC50)
[3] = read-out: 50% lethal concentration (LC50), Non-Small Cell Lung

C=C1CCC2C3(C)COC(c4cn(-c5ccccc5)nc4-c4ccc(Cl)cc4)OC3CCC2(C)C1CC=C1C(=O)OCC1O (stereo not shown) [1g]
GI50 (RXF 393): 1.79 µM
Total growth inhibition (TGI) (RXF 393): 3.37 µM
CC50 (RXF 393; [2]): 6.33 µM
GI50 (SK-MEL-2): 1.77 µM
Total growth inhibition (TGI) (SK-MEL-2): 3.25 µM
GI50 (SN12C; Renal): 1.67 µM
Total growth inhibition (TGI) (SN12C; Renal): 3.57 µM
CC50 (SN12C; read-out: 50% lethal concentration (LC50), Renal): 7.61 µM
GI50 (MALME-3M): 1.82 µM
Total growth inhibition (TGI) (MALME-3M): 3.41 µM
GI50 (CAKI-1): 1.63 µM
Total growth inhibition (TGI) (CAKI-1): 3.28 µM
CC50 (CAKI-1; [2]): 6.59 µM
Total growth inhibition (TGI) (HOP-62; HOP-62, Non-Small Cell Lung): 4.95 µM
GI50 (HOP-62; HOP-62, Non-Small-Cell Lung): 2.36 µM
CC50 (HOP-62; read-out: 50% lethal concentration (LC50), HOP-62, Non-Small Cell Lung): > 100 µM
Total growth inhibition (TGI) (A549/ATCC; Non-Small Cell Lung): 36.3 µM
GI50 (A549/ATCC; Non-Small-Cell Lung): 3.57 µM
CC50 (A549/ATCC; [3]): > 100 µM
GI50 (SK-MEL-28): 1.78 µM
Total growth inhibition (TGI) (SK-MEL-28): 3.36 µM
CC50 (SK-MEL-28; [2]): 6.35 µM
Total growth inhibition (TGI) (EKVX; Non-Small Cell Lung): 5.28 µM
GI50 (EKVX; Non-Small-Cell Lung): 2.24 µM
CC50 (EKVX; [3]): > 100 µM
GI50 (U251): 2.39 µM
Total growth inhibition (TGI) (U251): 3.19 µM
GI50 (MDA-MB-468): 2 µM
Total growth inhibition (TGI) (MDA-MB-468): 4.49 µM
CC50 (MDA-MB-468; [2]): 6.36 µM
GI50 (A498): 5.2 µM
Total growth inhibition (TGI) (A498): 19 µM
CC50 (A498; [2]): 53.7 µM
GI50 (HS 578T; Breast): 1.75 µM
Total growth inhibition (TGI) (HS 578T; Breast): 3.24 µM
CC50 (HS 578T; read-out: 50% lethal concentration (LC50), Breast): 6.45 µM
GI50 (MCF7): 1.51 µM
Total growth inhibition (TGI) (MCF7): > 100 µM
CC50 (MCF7; [2]): 42.8 µM
GI50 (KM12): 2.29 µM
Total growth inhibition (TGI) (KM12): 4.92 µM
GI50 (M14): 1.84 µM
Total growth inhibition (TGI) (M14): 3.69 µM
GI50 (OVCAR-3): 1.78 µM
Total growth inhibition (TGI) (OVCAR-3): 3.72 µM
CC50 (OVCAR-3; [2]): 7.77 µM
% DPPH radical scavenging activity [1]: 57.45%
Total growth inhibition (TGI) (NCI-H226; NCI-H226, Non-Small Cell Lung): 3.05 µM
GI50 (NCI-H226; NCI-H226, Non-Small-Cell Lung): 1.55 µM
CC50 (NCI-H226; read-out: 50% lethal concentration (LC50), NCI-H226, Non-Small Cell Lung): 5.99 µM
Total growth inhibition (TGI) (NCI-H460; NCI-H460, Non-Small Cell Lung): 3.72 µM
GI50 (NCI-H460; NCI-H460, Non-Small-Cell Lung): 1.79 µM
CC50 (NCI-H460; read-out: 50% lethal concentration (LC50), NCI-H460, Non-Small Cell Lung): 7.76 µM
GI50 (OVCAR-8): 1.95 µM
Total growth inhibition (TGI) (OVCAR-8): 4.97 µM
CC50 (OVCAR-8; [2]): > 100 µM
GI50 (SF-539): 1.72 µM
Total growth inhibition (TGI) (SF-539): 3.12 µM
CC50 (SF-539; [2]): 5.66 µM
Total growth inhibition (TGI) (SW-620): > 100 µM
CC50 (SW-620; [2]): > 100 µM
GI50 (HT29): 1.69 µM
Total growth inhibition (TGI) (HT29): 4.64 µM
CC50 (HT29; [2]): > 100 µM
GI50 (MDA-MB-231; MDA-MB-231, Breast): 1.68 µM
Total growth inhibition (TGI) (MDA-MB-231; MDA-MB-231/ATCC, Breast): 4.6 µM
CC50 (MDA-MB-231; read-out: 50% lethal concentration (LC50), MDA-MB-231/ATCC, Breast): 6.25 µM
GI50 (NCI/ADR-RES; Ovarian): 1.83 µM
Total growth inhibition (TGI) (NCI/ADR-RES; Ovarian): 4.24 µM
CC50 (NCI/ADR-RES; read-out: 50% lethal concentration (LC50), Ovarian): 9.87 µM
GI50 (LOX IMVI; Melanoma): 1.58 µM
Total growth inhibition (TGI) (LOX IMVI; Melanoma): 2.94 µM
CC50 (LOX IMVI; read-out: 50% lethal concentration (LC50), Melanoma): 5.48 µM
GI50 (SR; Leukemia): 2.53 µM
Total growth inhibition (TGI) (SR; Leukemia): > 100 µM
CC50 (SR; read-out: 50% lethal concentration (LC50), Leukemia): > 100 µM
